Results published in publication PMC3022525, “Analysis of LhcSR3, a Protein Essential for Feedback De-Excitation in the Green Alga Chlamydomonas reinhardtii” (PLoS Biology, 2011).

Tests used:
[1] = molecular target: T1, LhcSR3 (Chlamydomonas reinhardtii, UniProt P0DO19); test: […]-DCCD labelling, SDS-PAGE autoradiography, densitometry; format: binding; conditions: covalent; labelled compound; protonatable residues
T1 construct: gene LHCSR3.1; precursor 259 residues
T1 sequence (P0DO19 46-259 limits assumed): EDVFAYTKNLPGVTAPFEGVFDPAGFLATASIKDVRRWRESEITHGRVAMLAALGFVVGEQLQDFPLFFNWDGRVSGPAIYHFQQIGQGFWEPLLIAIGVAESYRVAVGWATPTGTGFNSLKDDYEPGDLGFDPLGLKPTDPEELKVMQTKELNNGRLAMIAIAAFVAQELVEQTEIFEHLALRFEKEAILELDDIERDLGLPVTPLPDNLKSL

[2] = molecular target: T1, LhcSR3; test: in vitro reconstitution, HPLC pigment analysis, Soret spectral deconvolution; format: binding
[3] = refolded with Chl a, Chl b, lutein and violaxanthin (LV complex), sites L1/L2 proposed

Row | Compound | in vitro reconstitution, HPLC pigment analysis, Soret spectral deconvolution [2, 3] | further results
1 | C(=NC1CCCCC1)=NC1CCCCC1 [DCCD] |  | 14C-DCCD labelling, SDS-PAGE autoradiography, densitometry [1]: LhcSR3 revealed very efficient binding of DCCD, higher than plant CP29
2 | CC1=C[C@H](O)CC(C)(C)[C@H]1/C=C/C(C)=C/C=C/C(C)=C/C=C/C=C(C)/C=C/C=C(C)/C=C/C1=C(C)C[C@@H](O)CC1(C)C [lutein] | lutein and violaxanthin bound to the apoprotein | 
3 | CC(/C=C/C=C(C)/C=C/[C@@]12O[C@]1(C)C[C@@H](O)CC2(C)C)=C\C=C\C=C(C)\C=C\C=C(C)\C=C\[C@@]12O[C@]1(C)C[C@@H](O)CC2(C)C [violaxanthin] | lutein and violaxanthin bound to the apoprotein | 
4 | CC1=C(/C=C/C(C)=C/C=C/C(C)=C/C=C/C=C(C)/C=C/C=C(C)/C=C/C2=C(C)C[C@@H](O)CC2(C)C)C(C)(C)C[C@H](O)C1 [zeaxanthin] |  | in vitro reconstitution, HPLC pigment analysis, Soret spectral deconvolution ([2]; refolded with zeaxanthin present besides lutein and violaxanthin (LVZ complex), several sites): implying that Zea entered the three sites, although to different extents
